Reference: publication PMC2967674 (Bioorganic & medicinal chemistry, 2009)
Read-outs that look alike come from different tables or passages of the source.

Assays:
GluR2 = settings: S1S2 construct filter assay; Gouaux, personal communication; cited from earlier work
SXc^− [1] = settings: read-out: Ki at SXc^−; cited from earlier work
SXc^− [2] = settings: cited from earlier work
[3] = target: T1, System xc^− transporter (SXc^−) (Homo sapiens, UniProt Q9UPY5); assay type: cell-based; settings: SNB-19 cells; for inhibitory activity at SXc^− (in words): initial screen at a single concentration (250 μM or 500 μM)
T1 sequence (Q9UPY5 1-501): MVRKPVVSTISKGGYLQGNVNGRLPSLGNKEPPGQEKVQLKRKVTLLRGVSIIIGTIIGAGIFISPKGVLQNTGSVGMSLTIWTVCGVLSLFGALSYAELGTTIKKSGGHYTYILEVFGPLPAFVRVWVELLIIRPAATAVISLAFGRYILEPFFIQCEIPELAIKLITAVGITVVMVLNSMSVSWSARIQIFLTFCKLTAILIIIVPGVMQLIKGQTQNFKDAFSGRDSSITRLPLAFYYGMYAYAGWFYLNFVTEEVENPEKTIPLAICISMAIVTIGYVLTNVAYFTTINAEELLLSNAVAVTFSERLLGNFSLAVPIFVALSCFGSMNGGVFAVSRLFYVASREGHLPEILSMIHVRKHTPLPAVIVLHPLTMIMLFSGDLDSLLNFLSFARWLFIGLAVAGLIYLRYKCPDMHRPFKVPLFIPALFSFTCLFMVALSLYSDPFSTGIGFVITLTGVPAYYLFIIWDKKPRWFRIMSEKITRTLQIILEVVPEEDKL
T1 sequence (P08195 1-529 partner): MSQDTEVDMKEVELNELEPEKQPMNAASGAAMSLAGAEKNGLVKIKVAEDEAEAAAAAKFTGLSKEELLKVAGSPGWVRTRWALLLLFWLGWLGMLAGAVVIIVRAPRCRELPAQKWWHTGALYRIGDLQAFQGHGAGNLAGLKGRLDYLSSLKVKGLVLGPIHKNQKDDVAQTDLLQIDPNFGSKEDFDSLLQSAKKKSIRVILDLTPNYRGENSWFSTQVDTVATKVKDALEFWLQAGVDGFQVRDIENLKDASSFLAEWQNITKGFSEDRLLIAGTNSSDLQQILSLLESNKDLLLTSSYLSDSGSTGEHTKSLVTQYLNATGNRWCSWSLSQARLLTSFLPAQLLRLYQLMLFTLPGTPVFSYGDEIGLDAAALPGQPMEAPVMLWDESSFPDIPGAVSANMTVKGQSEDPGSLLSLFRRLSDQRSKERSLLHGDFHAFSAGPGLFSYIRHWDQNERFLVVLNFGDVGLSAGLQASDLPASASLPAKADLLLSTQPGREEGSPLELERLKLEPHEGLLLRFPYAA

AMPA receptor = settings: brain slice; cited from earlier work
[4] = Conversion of open hydrazone to closed isoxazolo[3,4-d]pyridazinone in solution; assay type: physicochemical; settings: on standing in solution, 11a to 13a
SXc^− [5] = target: T2, SXc^− (Homo sapiens, UniProt Q9UPY5); assay type: cell-based; settings: SNB-19 cells, Na-free; for substrate-induced efflux of L-Glu (substrate activity): 500 μM; for attenuation of L-Cys2-induced efflux of L-Glu: added together with L-cystine
T2 sequence (Q9UPY5 1-501): T1 sequence (Q9UPY5 1-501)
T2 sequence (P08195 1-529 partner): T1 sequence (P08195 1-529 partner)

## C/C(=N\Nc1ccc([N+](=O)[O-])cc1[N+](=O)[O-])c1c(C(=O)O)noc1C [Compound 11d, 4-{1-[(2,4-Dinitro-phenyl)-hydrazono]-ethyl}-5-methyl-isoxazole-3-carboxylic acid]
GluR2
  GluR2 binding: no detectable GluR2 binding

## N[C@@H](Cn1oc(=O)[nH]c1=O)C(=O)O [QA, quisqualate]
SXc^− [1]
  Ki: ~5 µM
SXc^− [2]
  rate of exchange with L-Glu relative to L-Cys2: 35%

## C/C(=N\NC(=O)Nc1ccccc1)c1c(C(=O)O)noc1C [Compound 9c]
[3]
  inhibitory activity at SXc^− (in words): moderate amount of inhibitory activity
GluR2
  GluR2 binding: no detectable GluR2 binding

## Cc1onc(C(=O)O)c1C[C@H](N)C(=O)O [Compound 7, amino-3-carboxy-5-methylisoxazole propionic acid, reference compound]
[3]
  inhibitory activity at SXc^− (in words): no discernable activity

## N[C@@H](Cc1c(C(=O)O)noc1COCc1ccccc1)C(=O)O [Compound 7e, 4-[(2R,S)-2-amino-2-carboxyethyl]-5-[benzyloxymethyl]isoxazole-3-carboxylic acid]
[3]
  inhibitory activity at SXc^− (in words): markedly inhibit

## C/C(=N\Nc1ccc([N+](=O)[O-])cc1[N+](=O)[O-])c1c(C(=O)O)noc1COCc1ccc2ccccc2c1 [Compound 17, 4-{1-[(2,4-Dinitro-phenyl)-hydrazono]-ethyl}-5-(naphthalen-2-ylmethoxymethyl)-isoxazole-3-carboxylic acid]
[3]
  inhibitory activity at SXc^− (in words): virtually devoid of activity

## Cc1onc(O)c1C[C@H](N)C(=O)O [Compound 6, aminomethyl isoxazole propionic acid, reference compound]
[3]
  inhibitory activity at SXc^− (in words): no discernable activity

## N[C@H](C(=O)O)c1ccc(C(=O)O)cc1 [Compound 4-S-CPG, 4-S-carboxy-phenylglycine]
SXc^− [1]
  Ki: ~5 µM
SXc^− [2]
  substrate activity at SXc^− (in words): essentially a non-substrate inhibitor

## N[C@@H](Cc1c(C(=O)O)noc1CCc1ccccc1)C(=O)O [Compound 7d]
[3]
  inhibitory activity at SXc^− (in words): markedly inhibit
AMPA receptor
  displacement of radiolabeled AMPA: essentially no ability to displace radiolabeled AMPA

## 4-{1-[(3,5-Bis-trifluoromethyl-phenyl)-hydrazono]-ethyl}-5-(2-naphthalen-2-yl-ethyl)-isoxazole-3-carboxylic acid [Compound 11e]
[3]; compound 500 μM (100 minus % of control of Table 2)
  inhibition of SXc^−-mediated L-Glu uptake: 86%
[3]
  inhibitory activity at SXc^− (in words): moderate amount of inhibitory activity

## C/C(=N\Nc1ccccc1)c1c(C(=O)O)noc1C [Compound 11a, 5-Methyl-4-[1-(phenyl-hydrazono)-ethyl]-isoxazole-3-carboxylic acid]
[4]
  time for the open form to convert to the closed [3,4-d] form in solution: a matter of a few hours

## N[C@@H](Cc1c(C(=O)O)noc1CCc1ccc2ccccc2c1)C(=O)O [Compound 7g]
[3]
  inhibitory activity at SXc^− (in words): markedly inhibit
SXc^− [5]
  substrate-induced efflux of L-Glu (substrate activity): did not induce an efflux of L-Glu over background levels
  attenuation of L-Cys2-induced efflux of L-Glu: did attenuate the ability of L-Cys2 to exchange with intracellular L-Glu
SXc^− [5]; listed as S-2-naphthyl-ACPA
  attenuation of L-Cys2-induced efflux of L-Glu: attenuate L-cystine-induced efflux
AMPA receptor
  displacement of radiolabeled AMPA: essentially no ability to displace radiolabeled AMPA

## C/C(=N\NC(N)=O)c1c(C(=O)O)noc1C [Compound 9b]
GluR2
  GluR2 binding: no detectable GluR2 binding

## L-cystine [reference compound]
SXc^− [5]
  substrate-induced efflux of L-Glu (substrate activity): produced a significant efflux of L-glutamate over baseline

## N[C@@H](Cc1c(C(=O)O)noc1CCc1cccc2ccccc12)C(=O)O [Compound 7f]
[3]
  inhibitory activity at SXc^− (in words): markedly inhibit
AMPA receptor
  displacement of radiolabeled AMPA: essentially no ability to displace radiolabeled AMPA
